Reference: patent US20100249234A1, “METHODS OF REDUCING VIRULENCE IN BACTERIA” (UWM RESEARCH FOUNDATION, INC., priority 2007, published 2010)

Tested on: hrpY mRNA
Assay: qRT-PCR relative mRNA level of hrpY
Format: cell-based, Dickeya dadantii 3937 (Ech3937)
Conditions: MM supplemented with OCA, p>0.5 (FIG. 4)
Method: Bacterial strains were grown in MM. Total RNA from the bacterial cells was isolated by using the TRI reagent method (Sigma, Mo.) and treated with Turbo DNA-free DNase kits (Ambion, TX) as described (Peng et al., 2006). An iScript cDNA Synthesis Kit (Bio-Rad, CA) was used to synthesize cDNA from 0.5 μg of treated total RNA. The Real Master Mix (Eppendorf, Westbury, N.Y.) was used for qRT-PCR reaction to quantify the cDNA level of target genes in different samples. The rplU was used as the endogenous control for data analysis. qRT-PCR data were analyzed using Relative Expression Software Tool as described (Pfaffl, M. W., Horgan, G. W., and Dempfle, L. (2002) Relative expression software tool (REST) for group-wise comparison and statistical analysis of relative expression results in real-time PCR. Nucleic Acids Res 30:e36.).

SMILES: O=C(O)/C=C/c1ccccc1O [OCA, o-coumaric acid]
- hrpY gene expression, MM vs supplemented MM (qRT-PCR): No significant difference
